Where two headings read alike, the source gives them in different places.
Key:
[1] = tested on: secondary alcohol dehydrogenase (SADH); assay: Purified secondary alcohol dehydrogenase (SADH) activity; assay type: biochemical, Pseudomonas sp. ATCC 21439; conditions: each inhibitor 1 mM, measured spectrofluorometrically
Protocol: Secondary alcohol dehydrogenase (SADH) from an obligate methanol utilizer, Pseudomonas sp. ATCC 21439 was purified as follows. […] 0.05 M sodium phosphate buffer, pH 7.0 with 0.5 mM dithiothretol (buffer A) and were disrupted sonically (5×1 min.). The crude extract was separated by centrifugation. The crude extract was heat-treated at 50° C. in a water bath for 10 minutes. The resulting precipitate was removed by centrifugation. To the supernatant solution, 25 ml of protamine sulfate solution (2% solution in 0.1 M Tris base) was added dropwise with continuous stirring. After standing for 30 minutes, the extract was centrifuged. The supernatant solution was fractionated with solid ammonium sulfate. The material precipitating between 30 and 60% saturation was collected and was dialized overnight against buffer A. The The dialized material was applied to a DEAE-cellulose column (3 cm by 35 cm) that had been equilibrated with buffer A. The secondary alcohol dehydrogenase activity was eluted in the void volume. This DEAE-cellulose eluate was concentrated by ammonium sulfate fractionation. Material precipitating between 30 and 50% ammonium sulfate saturation was collected by centrifugation and dialyzed overnight against A. This fraction was further washed and filtered through an Amicon unit with XM 50 membrane. The concentrated fraction (6 ml) inside the Amicon unit was applied to an Affi-Gel Blue column (0.8 cm×18 cm) which had been equilibrated with buffer A for affinity chromatography. The column was washed overnight with buffer A (0.18 ml./min.) and then was eluted with buffer A containing 5 mM NAD. Each 1 ml. fraction was collected.
The purified secondary alcohol dehydrogenase enzyme (SADH) may be used directly for converting C3 -C6 secondary alcohols to the corresponding methyl ketones by the procedures described above; however, a source of NAD^+ must be added to the reaction medium. One can determine the NAD-linked secondary alcohol dehydrogenase activity with a fluorescence spectrophotometer (Perkin Elmer, Model MPF 44A) by following the formation of reduced NAD (Ex 340 nm, Em 460 nm). The assay system (3 ml.) will typically contain: sodium phosphate buffer pH 7.0, 150 μmol; NAD 1.0 μmol; a given amount of enzyme preparation; and 20 μmol secondary alcohol. The reaction is started by the addition of secondary alcohol. One unit of SADH enzyme activity represents the reduction of one nmole NAD per minute.
The effect of metal-chelating agents and thioreagents on the activity of the purified SADH enzyme were studied. […] The possibility of ethanol or n-propanol as an inhibitor was studied.

[2] = tested on: cell-free particulate fractions derived from the methylotrophic microorganisms; assay: Inhibition of conversion of C3-C6 n-alkanes to sec. alcohols by cell-free particulate fractions; assay type: biochemical; conditions: oxygen and NADH
Source text: The conditions for preparing the cell suspensions or the cell-free particulate fractions from methane-grown methylotroph microorganisms is the same as described above. […] Tables XXV and XXVI show the conversion of C3 -C6 n-alkanes to the corresponding secondary alcohols using cell suspensions and cell-free particulate fractions, respectively, of methane-grown methylotroph microorganisms.

[3] = tested on: secondary alcohol dehydrogenase; assay: Purified yeast-derived secondary alcohol dehydrogenase activity; assay type: biochemical, Pichia sp. NRRL Y-11,328
Protocol: Large scale cultures of Pichia sp. NRRL Y-11,328 were grown with aeration at 30° C. in a 14-liter New Brunswick f fermentor in a mineral salt medium containing methanol (0.4%, v/v) as the sole carbon source. The cells (200 g., wet weight) were suspended in […] sodium phosphate buffer, pH 7.0, containing 1 mM dithiothreitol (buffer A), and crude extracts were prepared as described previously. To the crude extracts, 18 ml. of protamine sulfate solution [2% solution in 0.1 M tris (hydroxymethyl) aminomethane (tris) base] was added dropwise with continuous stirring. After standing for 30 min., the extracts were centrifuged at 20,000×g. for 60 min. The supernatant solution was fractionated with solid ammonium sulfate. Extracts were brought to 50% of saturation with respect to ammonium sulfate by addition of 313 g. of the salt per liter of extract. Precipitated proteins was removed by centrifugation, and 137 g. of ammonium sulfate was added per liter of the supernatant liquid to bring it to 70% of saturation. Material precipitating between 50 and 70% of saturation was collected by centrifugation and dissolved in buffer A. This preparation was dialyzed overnight against buffer A, and the dialyzed material was applied to a DEAE-cellulose column (5×40 cm) that had been equilibrated with buffer A. The sample was washed with 200 ml. of buffer A and eluted with 2 liters of buffer A that contained NaCl in a linear gradient running from a concentration of 0 to 0.5 M. Fractions of 15 ml. were collected. Fractions containing secondary alcohol dehydrogenase activity were pooled and were termed DEAE-cellulose eluate. The DEAE-cellulose eluate was concentrated by ammonium sulfate fractionation.
Secondary alcohol dehydrogenase activity was measured spectrophotometrically at 340 nm with a NAD^+ as an electron acceptor. The reaction mixture, in a total 3.0 ml., contained 50 mM phosphate buffer, pH 8.0, 5 μmoles NAD^+, crude extracts, and substrate. […] Protein concentration was determined by the method of Lowry et al.
The substrate specificity of the purified secondary alcohol dehydrogenase was examined spectrophotometrically.

[4] = tested on: secondary alcohol dehydrogenase; assay: Cofactor requirement of cell-free soluble extracts oxidizing 2-butanol; assay type: biochemical; conditions: cell-free systems
Protocol: Catalytic activity was also assayed by fluorescence spectrophotometry.

[5] = tested on: P(40) particulate fraction of Methylosinus sp. (CRL-15, NRRL B-11,202); assay: Epoxidation of propylene and hydroxylation of methane by P(40) particulate fraction; assay type: biochemical; conditions: for Methane-Oxidizing Activity / Propylene-Oxidizing Activity: metal 10^-3 M; for Methane-Oxidizing Activity: control 4.0; for Propylene-Oxidizing Activity: control […]; for Rate of Production Formation: substrate oxidized by P(40) fraction, 30° C.; for Propylene Oxide Produced: substrate competition, P(40) fraction
[6] = tested on: methanol-grown Methylococcus capsulatus CRL M1 (NRRL B-11,219); assay: Production of 2-butanone from 2-butanol by cell suspensions, inhibition studies; assay type: cell-based; conditions: 1 mM
[7] = examined spectrophotometrically
[8] = purified enzyme, substrate 5.7 (isopropanol) or 6.0 (2-butanol) μmoles

## [N-]=[N+]=[N-] [Sodium azide]
[1]
  % inhibition of SADH activity: 10%

## Oc1cccc2cccnc12 [8-Hydroxyquinoline]
[2]
  inhibition of the conversion of n-alkanes to sec. alcohols: inhibited

## CC(O)CCO (stereo not drawn) [butane 1,3-diol]
[3]; [7]
  oxidation by the purified enzyme (substrate specificity): not oxidized

## CCCCC(C)O (stereo not drawn) [2-hexanol]
[3]; [7]
  oxidation by the purified enzyme (substrate specificity): catalyzed the oxidation

## CCCCCC(C)O (stereo not drawn) [2-Heptanol]
[3]; [7]
  oxidation by the purified enzyme (substrate specificity): not oxidized

## N[C@@H](CCC(=O)N[C@@H](CS)C(=O)NCC(=O)O)C(=O)O [glutathione]
[3]; purified enzyme
  inhibition of secondary alcohol dehydrogenase activity: strongly inhibited
[4]
  effectiveness as cofactor in place of NAD: not effective

## NC(=O)C1=CN([C@@H]2O[C@H](COP(=O)(O)OP(=O)(O)OC[C@H]3O[C@@H](n4cnc5c(N)ncnc54)[C@H](OP(=O)(O)O)[C@@H]3O)[C@@H](O)[C@H]2O)C=CC1 [NAD(P)H]
[4]
  effectiveness as cofactor in place of NAD: not effective

## [Mg+2] [Mg^++]
[1]
  % inhibition of SADH activity: 0%

## [Fe+3] [ferric]
[1]
  % inhibition of SADH activity: 35%

## CCC(C)O (stereo not drawn) [2-butanol]
[3]
  oxidation by the purified enzyme (substrate specificity): catalyzed the oxidation

## [Cl][Cu] [Cuprous Chloride]
[5]
  Methane-Oxidizing Activity: 7.2 μmoles/hr/mg protein
  Propylene-Oxidizing Activity: 9.2 μmoles/hr/mg protein

## NC(N)=S [Thiourea]
[6]
  Inhibition (%) of production of 2-butanone: not inhibited
[2]
  inhibition of the conversion of n-alkanes to sec. alcohols: inhibited

## [Mn+2] [Mn^++]
[1]
  % inhibition of SADH activity: 0%

## O=C(O)c1cc(SSc2ccc([N+](=O)[O-])c(C(=O)O)c2)ccc1[N+](=O)[O-] [5,5'-dithiobis(2-nitrobenzoic acid)]
[1]
  % inhibition of SADH activity: 100%
[1]; listed as 5,5'-dithiobis (2-nitrobenzoic acid)
  % inhibition of SADH activity: inhibited

## O=C1C(Cl)=CC(=Nc2ccc(O)cc2)C=C1Cl [2,6-dichlorophenol indophenol]
[3]; purified enzyme
  ability to act as electron carrier in place of NAD^+: could not act as electron carrier
[4]
  effectiveness as cofactor in place of NAD: not effective

## O=C(O)c1cc[c]([Hg+])cc1.[OH-] [p-hydroxymercuribenzoate]
[1]
  % inhibition of SADH activity: 100%
[3]; purified enzyme
  inhibition of secondary alcohol dehydrogenase activity: strongly inhibited

## NNC(N)=S [Thiosemicarbazide]
[2]
  inhibition of the conversion of n-alkanes to sec. alcohols: inhibited

## [Cu+2] [cupric]
[1]
  % inhibition of SADH activity: 25%

## C=CCC [1-Butene]
[5]
  Rate of Production Formation: 2.18 μ moles/hr/mg of protein

## [Ni+2] [nickel]
[1]
  % inhibition of SADH activity: 20%

## CCCCCO [pentan-1-ol]
[3]; [7]
  oxidation by the purified enzyme (substrate specificity): not oxidized

## C=CCCC [1-Pentene]
[5]
  Rate of Production Formation: 0 μ moles/hr/mg of protein

## O=S(=O)([O-])[O-].[Cu+2] [Cupric Sulfate]
[5]
  Methane-Oxidizing Activity: 7.1 μmoles/hr/mg protein
  Propylene-Oxidizing Activity: 9.0 μmoles/hr/mg protein
[3]; purified enzyme
  inhibition of secondary alcohol dehydrogenase activity: inhibited

## C=CC=C [Butadiene]
[5]
  Rate of Production Formation: 0.63 μ moles/hr/mg of protein

## CCCCCCC(C)O (stereo not drawn) [2-octanol]
[3]; [7]
  oxidation by the purified enzyme (substrate specificity): not oxidized

## C [Methane]
[5]
  Propylene Oxide Produced: 0 μmoles/hr/mg. protein
  Rate of Production Formation: 4.8 μ moles/hr/mg of protein

## Ferrous Sulfate
[5]
  Methane-Oxidizing Activity: 4.8 μmoles/hr/mg protein
  Propylene-Oxidizing Activity: 5.9 μmoles/hr/mg protein

## Cc1cc2nc3c(=O)[nH]c(=O)nc-3n(C[C@H](O)[C@H](O)[C@H](O)COP(=O)(O)OP(=O)(O)OC[C@H]3O[C@@H](n4cnc5c(N)ncnc54)[C@H](O)[C@@H]3O)c2cc1C [flavin adenine dinucleotide]
[3]; purified enzyme
  ability to act as electron carrier in place of NAD^+: could not act as electron carrier
[4]
  effectiveness as cofactor in place of NAD: not effective

## CCC(O)CO (stereo not drawn) [butane 1,2-diol]
[3]; [7]
  oxidation by the purified enzyme (substrate specificity): not oxidized

## c1ccc(-c2ccccn2)nc1 [α,α-Bipyridyl]
[6]
  Inhibition (%) of production of 2-butanone: inhibited
[1]
  % inhibition of SADH activity: 70%
[2]
  inhibition of the conversion of n-alkanes to sec. alcohols: inhibited

## CO [methanol]
[3]; [7]
  oxidation by the purified enzyme (substrate specificity): not oxidized

## CCN1C(=O)C=CC1=O [N-ethylmalemide]
[1]
  % inhibition of SADH activity: 6%
[1]; listed as N-ethylmaleimide
  % inhibition of SADH activity: not inhibited

## [Zn+2] [Zn^++]
[1]
  % inhibition of SADH activity: 0%

## [Co+2] [Co^++]
[1]
  % inhibition of SADH activity: 0%

## CCCO [propan-1-ol]
[3]
  oxidation by the purified enzyme (substrate specificity): not oxidized

## NC(=O)c1ccc[n+]([C@@H]2O[C@H](COP(=O)([O-])OP(=O)(O)OC[C@H]3O[C@@H](n4cnc5c(N)ncnc54)[C@H](OP(=O)(O)O)[C@@H]3O)[C@@H](O)[C@H]2O)c1 [NADP]
[3]; purified enzyme
  ability to act as electron carrier in place of NAD^+: could not act as electron carrier
[4]
  effectiveness as cofactor in place of NAD: not effective

## N#C[S][Hg][S]C#N [mercuric thiocyanate]
[3]; purified enzyme
  inhibition of secondary alcohol dehydrogenase activity: inhibited

## C[n+]1c2ccccc2nc2ccccc21 [phenazine methosulfate]
[3]; purified enzyme
  ability to act as electron carrier in place of NAD^+: could not act as electron carrier
[4]
  effectiveness as cofactor in place of NAD: not effective

## CCCC(C)O (stereo not drawn) [2-pentanol]
[3]; [7]
  oxidation by the purified enzyme (substrate specificity): catalyzed the oxidation

## C=C [Ethylene]
[5]
  Rate of Production Formation: 1.27 μ moles/hr/mg of protein

## CC(C)O [2-propanol]
[3]; [7]
  oxidation by the purified enzyme (substrate specificity): catalyzed the oxidation
[3]; [8]
  NAD^+ Reduced: 5.4 µmol
  Product Formed: 5.5 µmol

## CC(O)CO (stereo not drawn) [1,2-propandiol]
[3]; [7]
  oxidation by the purified enzyme (substrate specificity): not oxidized

## cytochrome c
[3]; purified enzyme
  ability to act as electron carrier in place of NAD^+: could not act as electron carrier

## C=CC [Propylene]
[5]
  Propylene Oxide Produced: 4.3 μmoles/hr/mg. protein
  Rate of Production Formation: 4.1 μ moles/hr/mg of protein
[2]
  inhibition of the conversion of n-alkanes to sec. alcohols: inhibited

## CCCCO [butan-1-ol]
[3]
  oxidation by the purified enzyme (substrate specificity): not oxidized

## CCO [ethanol]
[3]
  oxidation by the purified enzyme (substrate specificity): not oxidized

## CC [Ethane]
[5]
  Rate of Production Formation: 3.2 μ moles/hr/mg of protein

## [Fe+2] [ferrous]
[1]
  % inhibition of SADH activity: 50%

## O=[N+]([O-])[O-].[Ag+] [silver nitrate]
[3]; purified enzyme
  inhibition of secondary alcohol dehydrogenase activity: inhibited

## [Cl][Fe]([Cl])[Cl] [Ferric Chloride]
[5]
  Methane-Oxidizing Activity: 4.8 μmoles/hr/mg protein
  Propylene-Oxidizing Activity: 5.8 μmoles/hr/mg protein

## c1c[nH]cn1 [Imidazole]
[3]; purified enzyme
  inhibition of secondary alcohol dehydrogenase activity: strongly inhibited

— US4266034A, “Method for producing microbial cells and use thereof to produce oxidation products” (priority 1979, dated 1981)
